Consider 4 compounds from US20060286561A1, “PROPARGYLETHOXYAMINO NUCLEOTIDES” (Applera Corporation; Applied Biosystems Group, priority 1996, published 2006).

What all share (assay type): biochemical
In assay [1] the target is AmpliTaq FS Polymerase (mutant form of Taq DNA polymerase) (Thermus aquaticus, UniProt P19821, F667Y/G46D). Nature of the assay: Single-Nucleotide Incorporation Assay for relative enzyme selectivity. Conditions: for ddCTP/(Dye)-ddCTP (ratio of incorporation rates, preference for unlabeled ddCTP): ddCTP and dye-ddCTP each 200 μM, 8 nM enzyme, 60° C., corrected for energy transfer. An excerpt:
In the assay, an unlabeled terminator and its cognate dye-labeled terminator are present in equal concentrations and allowed to compete for the same polymerase-substrate binding site under enzyme limited (steady-state) conditions.
With reference to FIG. 3, the components of the assay include a 36 nucleotide template (5); a 25 nucleotide primer (10) having a sequence complementary to the template and a first fluorescent label at the 5′-end (15); an unlabeled terminator (20); a dye-labeled terminator (25) having a second fluorescent label attached thereto (30) which is spectrally resolvable from the first fluorescent label; and a polymerase enzyme. In the present example, the unlabeled terminator was 2′,3′-ddCTP and the dye-labeled terminator was 6-(FAM)-ddCTP where different linker arms were used to attach the dye to the nucleotide. The template DNA contained a single G (35) at the template position following the end of the primer.
Products (40) and (45) were detected by resolving them electrophoretically and detecting the resulting bands using an ABI PRISM™ 373 DNA Sequencer (PE Applied Biosystems). A typical banding pattern consisted of a 25-mer band corresponding to the labeled primer (10), a 26-mer band corresponding to the product (40) and an “apparent 27-mer” which corresponded to product (45). The apparent extra base seen in product (45) is a result of the effect of the dye-labeled terminator on the electrophoretic mobility of the fragment. By taking samples from a reaction mixture and measuring the relative amounts of DNA in the 25-mer, 26-mer, and apparent 27-mer bands as a function of time, it was possible to measure the relative incorporation rates of the unlabeled and dye-labeled terminators in the reaction. […] In this manner, it was possible to measure the effect of linker structure on dye-terminator incorporation.
For the case of product (45), it is necessary to correct the fluorescence signal for fluorescence energy transfer which takes place between the first fluorescent label (15) located at the 5′-end of product (45), TAMRA in this example, and the second fluorescent label (30) located on the terminator positioned at the 3′-end of product (45), FAM in this example. Under the conditions used for detection, the presence of the 3′-FAM label serves to enhance the signal resulting from the TAMRA label. The energy-transfer correction is accomplished by synthesizing a doubly labeled internal standard molecule having the same structure as product (45), preparing a control sample containing equal moles of the 5′-TAMRA labeled primer (10) and the doubly labeled internal standard molecule, and running the control sample in a control lane on the same gel as assay products (40) and (45). Any difference in TAMRA fluorescence between the primer (10) and the doubly labeled internal standard is a quantitative measure of the extent of energy transfer between the dye moieties in the assay product (45). […] This measurement was used to correct the TAMRA fluorescence from the product (45) in each of the test sample lanes.
(The numbers in parenthesis next to certain components refer to elements in FIG. 3.)
The assay reactions were prepared as follows. Two 2×-concentrated “Half Reaction Mixtures” were prepared and held on ice. A first solution, the “2× Enz·DNA” mixture, comprised […] template/primer DNA and […] AmpliTaq FS in 80 mM TRIS buffer. A second solution, the “2× Mg·Nuc” mixture, comprised 80 mM TRIS buffer plus 4.8 mM MgCl2 and each of the nucleotides at 400 μM. A “Zero Time Control” sample was prepared by adding 1 μl of the 2× Enz-DNA mixture to 25 μl of “STOP Solution” (0.5 M EDTA, […]), and, after mixing, adding 1 μl of the 2× Mg·Nuc mixture. The Zero Time Control sample was held on ice until the remainder of the timed samples were also collected for further processing. […]

Assay [2] has as its target T1, AmpliTaq DNA Polymerase, FS (Thermus aquaticus, UniProt P19821, F667Y/G46D).
T1 construct: purchased PE Applied Biosystems p/n 402117
The assay can be described thus: Terminator Titration Assay (dye-terminator cycle sequencing reaction). Conditions: for mean peak height / relative error of peak height (standard deviation / mean): FIG. 2, at optimal terminator concentration; for relative error of peak height (standard deviation / mean): lower = more even peak heights; for optimal concentration of terminator: FIG. 2, sequencing pattern comparison.

Assay [3] deals with T1, AmpliTaq DNA Polymerase, FS. The description is as above. The following applies: for Relative Molar Excess Terminator Required: to form a full sequencing ladder. An excerpt: The Terminator Titration Assay was used to determine the minimum amount of dye terminator required to create a full sequencing ladder, i.e., a sequencing ladder including all fragments terminating in a particular base having a length of between about 20 to about 600 nucleotides. The key components of the assay were (i) a primer labeled with a first dye, and (i) a terminator labeled with a second dye spectrally resolvable from the first dye. In the assay, when an insufficient concentration of dye terminator was added to the sequencing reaction, no dideoxy-terminated fragments were formed, and all that was seen on the sequencing gel were products formed by “false stops” that were labeled with the first dye only. As used herein the term “false stops” refer to primer extension products not terminating in a dideoxy terminator, such products probably being formed when the polymerase enzyme spontaneously disengages with the template strand. When too much terminator was used, only short termination products were formed, i.e., less than about 50 nucleotides in length, such products including both the first and second dyes. When the proper amount of terminator was used, a full sequencing ladder was produced, each fragment of the ladder being labeled with both the first and second dyes.
The dye-terminator reactions were performed using AmpliTaq DNA Polymerase, FS following protocols provided in the ABI PRISM™ Dye Terminator Cycle Sequencing Core Kit Manual (PE Applied Biosystems p/n 402116). (The FS enzyme is a recombinant Thermus aquaticus DNA polymerase having two point mutations--G46D and F667Y). All reagents except the dNTP mix, dye labeled primers, and dye-labeled terminators were from an ABI PRISM™ Dye Terminator Core Kit (PE Applied Biosystems p/n 402117). The dNTP mix consisted of 2 mM each of dATP, dCTP, dGTP and dTTP. A premix of reaction components was prepared as shown in the following table wherein all quantities are given on a per reaction basis:
Reactions were assembled in 0.5 ml tubes adapted for the Perkin-Elmer 480 DNA Thermal Cycler (PE Applied Biosystems p/n N801-100). Reaction volumes were 20 μL, including 15 μL, of the above reaction premix, a variable amount of dye labeled terminator, and a sufficient volume of water to bring the total reaction volume up to 20 μL. From 1 to 1000 pmol of the dye terminator was added to each reaction. 30 μL of mineral oil was added to the top of each reaction to prevent evaporation. Reactions were thermocycled as follows: 96° C. for 30 sec, 50° C. for 15 sec, and 60° C. for 4 min, for 25 cycles; followed by a 4° C. hold cycle.
All reactions were purified by spin-column purification on Centri-Sep spin columns according to manufacturer's instructions (Princeton Separations p/n CS-901). Gel material in the column was hydrated with 0.8 mL deionized water for at least 30 minutes at room temperature. After the column was hydrated and it was determined that no bubbles were trapped in the gel material, the upper and lower end caps of the column were removed, and the column was allowed to drain by gravity. The column was then inserted into the wash tubes provided in the kit and centrifuged in a variable speed microcentrifuge at 1300×g for 2 minutes, removed from the wash tube, and inserted into a sample collection tube. The reaction mixture was carefully removed from under the oil and loaded onto the gel material. Columns were centrifuged in a variable speed microcentrifuge at 1300×g for 2 minutes. Eluted samples were then dried in a vacuum centrifuge.
Prior to loading onto a sequencing gel, the dried samples were resuspended in 25 μL of Template Suppression Reagent (PE Applied Biosystems p/n 401674), vortexed, heated to 95° C. for 2 minutes, cooled on ice, vortexed again, and centrifuged (13,000×g). 10 μL of the resuspended sample was aliquoted into sample vials (PE Applied Biosystems p/n 401957) adapted for the PE ABI PRISM™ 310 Genetic Analyzer (PE Applied Biosystems p/n 310-00-100/120). […]

The mark [4] stands for this setting: C-terminator linked to 6-FAM dye, unlabeled dideoxy terminator = 1.
[5] abbreviates: C-terminator, various combinations of dyes and linkers, unlabeled terminator = 1.

T1 sequence (P19821 whole entry G46D/F667Y): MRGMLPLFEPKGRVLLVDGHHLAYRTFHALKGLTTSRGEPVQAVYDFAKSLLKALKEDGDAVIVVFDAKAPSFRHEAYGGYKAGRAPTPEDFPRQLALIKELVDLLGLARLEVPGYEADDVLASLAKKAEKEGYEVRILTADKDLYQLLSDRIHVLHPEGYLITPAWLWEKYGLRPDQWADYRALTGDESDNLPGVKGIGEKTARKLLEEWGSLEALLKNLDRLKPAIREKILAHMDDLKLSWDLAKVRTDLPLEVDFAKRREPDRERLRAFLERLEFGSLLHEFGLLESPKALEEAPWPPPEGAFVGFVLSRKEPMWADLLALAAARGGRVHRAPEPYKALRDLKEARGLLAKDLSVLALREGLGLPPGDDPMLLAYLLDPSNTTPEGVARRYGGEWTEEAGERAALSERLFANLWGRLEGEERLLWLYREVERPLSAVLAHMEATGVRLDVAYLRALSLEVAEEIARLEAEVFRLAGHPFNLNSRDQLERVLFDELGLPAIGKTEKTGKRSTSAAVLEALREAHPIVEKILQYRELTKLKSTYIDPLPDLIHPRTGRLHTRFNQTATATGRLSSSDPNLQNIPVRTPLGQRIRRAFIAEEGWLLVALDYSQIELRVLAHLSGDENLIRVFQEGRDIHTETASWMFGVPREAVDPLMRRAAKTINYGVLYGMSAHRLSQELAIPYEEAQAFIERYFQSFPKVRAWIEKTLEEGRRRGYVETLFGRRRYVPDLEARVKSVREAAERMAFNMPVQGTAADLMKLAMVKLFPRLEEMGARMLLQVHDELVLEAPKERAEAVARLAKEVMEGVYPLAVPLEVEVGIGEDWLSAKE
AmpliTaq FS Polymerase (mutant form of Taq DNA polymerase), sequence (P19821 whole entry G46D/F667Y): as above

With `Nc1nc(=O)n(C2CCC(COP(=O)(O)OP(=O)(O)OP(=O)(O)O)O2)cc1C#CCOCCNC(=O)c1ccc2c(c1)C(=O)OC21c2ccc(O)cc2Oc2cc(O)ccc21` (stereo not shown) [(6-FAM)-propargyl-1-ethoxyamido-C], the “ddCTP/(Dye)-ddCTP (ratio of incorporation rates, preference for unlabeled ddCTP)” value in assay [1] was 19×. Moreover, the “ddCTP/(Dye)-ddCTP (ratio of incorporation rates, preference for unlabeled ddCTP)” value in assay [1] (listed as FAM-ddCTP (propargyl-1-ethoxyamido linker)) came to 19 ×. For the same compound, in assay [2], the mean peak height came out at 504, the “relative error of peak height (standard deviation / mean)” value is 0.436 and the “optimal concentration of terminator” value is 50 pmol. The “reduced molar excess as compared with terminators employing the propargylamido linker” value in assay [3] (C-terminator) was “six-fold”. Moreover, the “reduced molar excess as compared with terminators employing a propargyl-2-ethoxyamido linker” value in assay [3] (C-terminator linked to 6-FAM) is on record as “five-fold”. In assay [3] (setting [4]), the “Relative Molar Excess Terminator Required” value came out at 9. For the same compound, in assay [3] (setting [5]), the “Relative Molar Excess Terminator Required” value turned out to be 9.

For `Nc1nc(=O)n(C2CCC(COP(=O)(O)OP(=O)(O)OP(=O)(O)O)O2)cc1C#CCOCCOCCNC(=O)c1ccc2c(c1)C(=O)OC21c2ccc(O)cc2Oc2cc(O)ccc21` (stereo not shown) [(6-FAM)-propargyl-2-ethoxyamido-C], the “increase of bias against dye-ddCTP versus propargylamido linker” value in assay [1] (FAM-ddCTP, from 65× to 110×) is on record as “about 2 fold”. The figures for the “ddCTP/(Dye)-ddCTP (ratio of incorporation rates, preference for unlabeled ddCTP)” value in assay [1] and in assay [1] (listed as FAM-ddCTP (propargyl-2-ethoxyamido linker)) were 110× and 110 ×, respectively. In assay [3] (setting [4]), the “Relative Molar Excess Terminator Required” value is reported as 45.

In the case of `Nc1nc(=O)n(C2CCC(COP(=O)(O)OP(=O)(O)OP(=O)(O)O)O2)cc1C#CCNC(=O)c1ccc2c(c1)C(=O)OC21c2ccc(O)cc2Oc2cc(O)ccc21` (stereo not shown) [(6-FAM)-propargylamido-C, reference compound], the “ddCTP/(Dye)-ddCTP (ratio of incorporation rates, preference for unlabeled ddCTP)” value in assay [1] is reported as 65×; in assay [1] (listed as FAM-ddCTP (propargylamido linker)) it was 65 ×. Besides, the mean peak height in assay [2] was found to be 1800. Moreover, the “relative error of peak height (standard deviation / mean)” value in assay [2] was 0.533. Moreover, the “optimal concentration of terminator” value in assay [2] is 250 pmol. Besides, the “Relative Molar Excess Terminator Required” value in assay [3] (setting [4]) and in assay [3] (setting [5]) was 55 in each case.

For the compound `Nc1ccn([C@H]2CC[C@@H](COP(=O)(O)OP(=O)(O)OP(=O)(O)O)O2)c(=O)n1` [Unlabeled terminator, 2′,3′-ddCTP, reference compound], the “Relative Molar Excess Terminator Required” value in assay [3] (setting [4]) and in assay [3] (setting [5]) was 1 throughout.
